Test results as given in ChEMBL document CHEMBL4834417, “Diverse Polycyclic Polyprenylated Acylphloroglucinol Congeners with Anti-Nonalcoholic Steatohepatitis Activity from Hypericum forrestii” (J Nat Prod, 2021).
The source made the active and inactive calls.

What was measured:
Format in all cases: functional, cell-based
L02 [1] = experiment: Anti-nonalcoholic steatohepatitis activity in FFA-induced human L02 cells assessed as downregulation of FASN mRNA expression at 10 uM by QRT-PCR analysis
L02 [2] = experiment: Anti-nonalcoholic steatohepatitis activity in FFA-induced human L02 cells assessed as reduction in lipid droplets at 5 uM after 48 hrs by Oil red O staining based assay
L02 [3] = experiment: Anti-nonalcoholic steatohepatitis activity in FFA-induced human L02 cells assessed as upregulation of PPARalpha mRNA expression at 10 uM by QRT-PCR analysis
L02 [4] = experiment: Anti-nonalcoholic steatohepatitis activity in FFA-induced human L02 cells assessed as downregulation of CD36 mRNA expression at 10 uM by QRT-PCR analysis
L02 [5] = experiment: Anti-nonalcoholic steatohepatitis activity in FFA-induced human L02 cells assessed as upregulation of ACOX1 mRNA expression at 10 uM by QRT-PCR analysis
L02 [6] = experiment: Anti-nonalcoholic steatohepatitis activity in FFA-induced human L02 cells assessed as reduction in lipid droplets after 48 hrs by Oil red O staining based assay; settings: dose 5-10 µM

Measured: Activity

CC(C)=CCC[C@]1(C)[C@@H](CC=C(C)C)C[C@]23C[C@H](C(C)(C)O)OC2=C(CC=C(C)C)C(=O)[C@@]1(C(=O)c1ccccc1)C3=O
active: L02 [1] | L02 [2] | L02 [3] | L02 [4] | L02 [5] | L02 [6] Dose-Dependent Effect

CC(C)=CCC/C(C)=C/C[C@]1(CC=C(C)C)C(=O)C(C(=O)c2ccccc2)=C2OC(C)(C)[C@@H]3C[C@]23C1=O
active: L02 [1] | L02 [2] | L02 [3] | L02 [4] | L02 [5] | L02 [6] Dose-Dependent Effect
